One block for each compound: values may come before it.
What was measured:
GABAA receptors = assay: Electrophysiology assay (two-electrode voltage clamp, Xenopus oocytes expressing GABAA receptors); assay type: cell-based; settings: positive (Pos) or negative (Neg) modulation of current at GABA EC20, screening concentration of 10 μM
Experimental: The modulation of GABAA function is determined by changes in current as determined in an electrophysiology assay, as is detailed below.
mRNA was prepared from lyophilized plasmid pellets containing cDNA inserts encoding the specific GABAA receptor subunit. cDNAs encoding the α2, α3, and γ3 subunits were subcloned into pBluescript, SK^−. cDNAs encoding the a 1 and a 5 subunits were subcloned into prC while cDNA encoding the β2 subunit was subcloned into pcDNA1. The cDNA construct encoding the g 2s subunit is in the pGH19 expression construct. Overnight cultures of transformed DH5a bacterial cells were performed to grow sufficient quantities for maxiprep isolation of the plasmid cDNA. The resulting plasmid cDNA was linearized by digestion with an appropriate restriction enzyme that cleaves distal to the cDNA insert [XbaI (α1, β2), NotI (α3, γ2 s), SacII (α2), or ApaI (α5)]. Following digestion, plasmid cDNA was treated with proteinase K and extracted with phenol/chloroform/isoamyl alcohol, followed by ethanol precipitation. cDNA quality was assessed by agarose-gel electrophoresis (1.5% agarose gel). Samples were stored at −20° C. until use. In vitro transcription was performed with T7 RNA polymerase. mRNA was then stored at −80° C. until use. Plasmids were linearized with appropriate restriction enzymes before in vitro transcription using the Message Machine kit (Ambion, Austin, Tex.).
GABAA receptor expression in Xenopus oocytes: Following 45 min of 0.15% Tricaine anesthesia, an ovarian section containing the follicular oocytes was removed from the frog through a lateral abdominal incision. Oocytes were immediately placed in a calcium-free solution (NaCl 96 mM, MgCl2 1 mM, KCl 2 mM, Hepes 50 mM, pyruvate 2.5 mM, gentamycin 100 μg/mL, penicillin-streptomycin 50 U/mL, pH 7.4). Following 1.5-2 hour incubation in 0.2% collagenase (type II, Sigma Chemical Co., St. Louis, Mo.) at room temperature, individual Dumont stage V and VI oocytes were transferred to an incubator and maintained overnight in Barth's solution (NaCl 84 mM, NaHCO3 2.4 mM, MgSO4 0.82 mM, KCl 1 mM, Ca(NO3)2 0.33 mM, CaCl2 0.41 mM, Tris/HCl 7.5 mM, pyruvate 2.5 mM, gentamycin 50 μg/mL, penicillin-streptomycin, 100 units/mL, pH 7.4) at 18-20° C. and used for experiments 1-5 days post-injection. Oocytes were injected solution using an electronic microinjector (Drummond, Broomall, Pa.) with 50 nL of RNA containing 0.3-0.5 ng of each subunit RNA in a 1:1:2 ratio. The injected oocytes were used for experiments after 1-5 days of incubation in Barth's solution at 18-20° C.
Measurements of ion currents from oocytes expressing GABAA receptors were performed using a Warner two-electrode voltage-clamp amplifier (Warner Instruments, Inc., Foster City, Calif.) (Park-Chung, M. A., et al. (1999) Brain Res. 830: 72-87 incorporated herein in its entirety). Microelectrodes were fabricated from borosilicate glass capillaries with a programmed pipette puller (Sutter Instrument Co., CA). Microelectrode resistance was 1-3 MΩ when filled with 3 M KCl. The oocyte recording chamber was continuously perfused with ND-96 solution. Oocytes were clamped at a holding potential of −70 mV during data acquisition. The membrane current was filtered at 10 Hz and sampled at 100 Hz. Compounds were applied by a gravity-driven external perfusion system. The working volume of the recording chamber was […] and the rate of the perfusion was approximately […]. Compound application was 20-25 sec followed by a minimum of 150 sec wash. Data acquisition and external perfusion was computer controlled by custom-developed software. All experiments were performed at room temperature (22-24° C.). Dose-response data from each oocyte were fitted to the Hill equation by non-linear regression using the equation: IGABA=Emax/(1+(EC50/c)nH)
Emax is the maximum response, EC50 is the concentration producing 50% of the maximal response, nH is the Hill coefficient and c is the concentration of agonist. […]

[1] = molecular target: GABAA central benzodiazepine receptor; assay: Benzodiazepine binding assay ((3H)-flunitrazepam displacement); settings: read-out: BZ binding assay (IC50); rat whole brain (except cerebellum), 1 nM (3H)-flunitrazepam, 60 minutes at 25° C.; 3-concentration dose response curve

SMILES: O=c1c2c[nH]c3cc(N4CCNCC4)c(F)cc3c-2nn1-c1ccsc1 [28p, 8-fluoro-7-(piperazin-1-yl)-2-(thiophen-3-yl)-2,5-dihydro-pyrazolo[4,3-c]quinolin-3-one]
- EP Result (GABAA receptors): Neg
- IC50 [1]: < 1000 nM

SMILES: CN1CCN(c2ccc3[nH]cc4c(=O)n(-c5ccc(Cl)cc5)nc-4c3c2)CC1 [7d, 2-(4′-Chlorophenyl)-8-(4-methylpiperazin-1-yl)-2,5-dihydro-pyrazolo[4,3-c]quinolin-3-one]
- EP Result (GABAA receptors): Pos
- IC50 [1]: < 1000 nM

SMILES: O=c1c2c[nH]c3cc(Cl)c(N4CCOCC4)cc3c-2nn1-c1ccccc1 [19k, 7-Chloro-8-morpholin-4-yl-2-phenyl-2,5-dihydro-pyrazolo[4,3-c]quinolin-3-one]
- EP Result (GABAA receptors): Pos
- IC50 [1]: < 1000 nM

SMILES: CN1CCN(c2ccc3[nH]cc4c(=O)n(-c5ccccc5)nc-4c3c2)CC1 [7b, 8-(4-Methylpiperazin-1-yl)-2-phenyl-2,5-dihydro-pyrazolo[4,3-c]quinolin-3-one]
- EP Result (GABAA receptors): Pos
- IC50 [1]: < 1000 nM

SMILES: COc1ccc(-n2nc3c4cc(N5CCNCC5)ccc4[nH]cc-3c2=O)cc1 [7e, 2-(4′-Methoxyphenyl)-8-piperazin-1-yl-2,5-dihydro-pyrazolo[4,3-c]quinolin-3-one]
- EP Result (GABAA receptors): Pos
- IC50 [1]: < 1000 nM

SMILES: COc1ccc(-n2nc3c4ccc(N5CCNCC5)cc4[nH]cc-3c2=O)cc1 [14e, 2-(4-Methoxyphenyl)-7-piperazin-1-yl-2,5-dihydro-pyrazolo[4,3-c]quinolin-3-one]
- EP Result (GABAA receptors): Neg
- IC50 [1]: < 1000 nM

SMILES: CC(C)N1CCN(c2ccc3[nH]cc4c(=O)n(-c5ccccc5)nc-4c3c2)CC1 [19b, 8-(4-Isopropylpiperazin-1-yl)-2-phenyl-2,5-dihydro-pyrazolo[4,3-c]quinolin-3-one]
- EP Result (GABAA receptors): Pos
- IC50 [1]: < 1000 nM

SMILES: COCCN1CCN(c2ccc3[nH]cc4c(=O)n(-c5ccccc5)nc-4c3c2)CC1 [19f, 8-[4-(2-Methoxyethyl)-piperazin-1-yl]-2-phenyl-2,5-dihydro-pyrazolo[4,3-c]quinolin-3-one]
- EP Result (GABAA receptors): Pos
- IC50 [1]: < 1000 nM

SMILES: COc1ccc(-n2nc3c4ccc(N5CCN(C)CC5)cc4[nH]cc-3c2=O)cc1 [14f, 2-(4-Methoxyphenyl)-7-(4-methylpiperazin-1-yl)-2,5-dihydro-pyrazolo[4,3-c]quinolin-3-one]
- EP Result (GABAA receptors): Neg
- IC50 [1]: > 1000 nM

SMILES: COc1ccc(-n2nc3c4cc(N5CCN(C(C)C)CC5)ccc4[nH]cc-3c2=O)cc1 [19i, 8-(4-Isopropylpiperazin-1-yl)-2-(4-methoxyphenyl)-2,5-dihydro-pyrazolo[4,3-c]quinolin-3-one]
- EP Result (GABAA receptors): Pos
- IC50 [1]: < 1000 nM

SMILES: O=c1c2c[nH]c3cc(F)c(N4CCOCC4)cc3c-2nn1-c1ccccc1 [19a, 7-Fluoro-8-morpholin-4-yl-2-phenyl-2,5-dihydro-pyrazolo[4,3-c]quinolin-3-one]
- EP Result (GABAA receptors): Pos
- IC50 [1]: < 1 nM

SMILES: O=c1c2c[nH]c3ccc(N4CCNCC4)cc3c-2nn1-c1ccccc1 [7a, 2-Phenyl-8-piperazin-1-yl-2,5-dihydro-pyrazolo[4,3-c]quinolin-3-one]
- EP Result (GABAA receptors): Pos
- IC50 [1]: < 1000 nM

SMILES: COc1ccc(-n2nc3c4cc(N5CCN(C)CC5)ccc4[nH]cc-3c2=O)cc1 [7f, 2-(4′-Methoxyphenyl)-8-(4-methylpiperazin-1-yl)-2,5-dihydro-pyrazolo[4,3-c]quinolin-3-one]
- EP Result (GABAA receptors): Pos
- IC50 [1]: < 1000 nM

SMILES: O=c1c2c[nH]c3ccc(N4CCCCC4)cc3c-2nn1-c1ccccc1 [19g, 2-Phenyl-8-piperidin-1-yl-2,5-dihydro-pyrazolo[4,3-c]quinolin-3-one]
- EP Result (GABAA receptors): Pos
- IC50 [1]: < 1000 nM

SMILES: O=c1c2c[nH]c3ccc(N4CCOCC4)cc3c-2nn1-c1ccccc1 [19d, 8-Morpholin-4-yl-2-phenyl-2,5-dihydro-pyrazolo[4,3-c]quinolin-3-one]
- EP Result (GABAA receptors): Neg
- IC50 [1]: < 1000 nM

SMILES: O=c1c2c[nH]c3cc(Cl)c(N4CCNCC4)cc3c-2nn1-c1ccccc1 [19j, 7-Chloro-2-phenyl-8-piperazin-1-yl-2,5-dihydro-pyrazolo[4,3-c]quinolin-3-one]
- EP Result (GABAA receptors): Neg
- IC50 [1]: < 1000 nM

SMILES: O=c1c2c[nH]c3cc(N4CCNCC4)ccc3c-2nn1-c1ccccc1 [14a, 2-Phenyl-7-piperazin-1-yl-2,5-dihydro-pyrazolo[4,3-c]quinolin-3-one]
- EP Result (GABAA receptors): Neg
- IC50 [1]: > 1000 nM

SMILES: CN1CCN(c2ccc3c4nn(-c5ccccc5)c(=O)c-4c[nH]c3c2)CC1 [14b, 7-(4-Methylpiperazin-1-yl)-2-phenyl-2,5-dihydro-pyrazolo[4,3-c]quinolin-3-one]
- EP Result (GABAA receptors): Neg
- IC50 [1]: < 1000 nM

SMILES: O=c1c2c[nH]c3ccc(N4CCOCC4)cc3c-2nn1-c1ccccc1F [19e, 2-(2-Fluorophenyl)-8-morpholin-4-yl-2,5-dihydro-pyrazolo[4,3-c]quinolin-3-one]
- EP Result (GABAA receptors): Neg
- IC50 [1]: < 1000 nM

Other lines, results leading:

- EP Result (GABAA receptors): Pos
- IC50 [1]: < 1000 nM
SMILES: O=c1c2c[nH]c3cc(N4CCOCC4)c(F)cc3c-2nn1-c1ccccc1 [28b, 8-Fluoro-7-morpholin-4-yl-2-phenyl-2,5-dihydro-pyrazolo[4,3-c]quinolin-3-one]

- EP Result (GABAA receptors): Pos
- IC50 [1]: < 1000 nM
SMILES: CC1CC(C)CN(c2cc3[nH]cc4c(=O)n(-c5ccccc5)nc-4c3cc2F)C1 (centres unmarked) [28e, 7-(3,5-Dimethylpiperidin-1-yl)-8-fluoro-2-phenyl-2,5-dihydro-pyrazolo[4,3-c]quinolin-3-one]

- EP Result (GABAA receptors): Pos
- IC50 [1]: < 1000 nM
SMILES: O=c1c2c[nH]c3cc(N4CCOCC4)ccc3c-2nn1-c1ccccc1 [28h, 7-Morpholin-4-yl-2-phenyl-2,5-dihydro-pyrazolo[4,3-c]quinolin-3-one]

- EP Result (GABAA receptors): Neg
- IC50 [1]: < 1000 nM
SMILES: O=c1c2c[nH]c3cc(N4CCOCC4)c(F)cc3c-2nn1-c1ccccn1 [28d, 8-Fluoro-7-(morpholin-4-yl)-2-pyridin-2-yl-2,5-dihydro-pyrazolo[4,3-c]quinolin-3-one]

- EP Result (GABAA receptors): Pos
- IC50 [1]: < 1000 nM
SMILES: COc1ccc(-n2nc3c4cc(F)c(N5CCN(C)CC5)c(F)c4[nH]cc-3c2=O)cc1 [44d, 6,8-Difluoro-2-(4-methoxyphenyl)-7-(4-methylpiperazin-1-yl)-2,5-dihydro-pyrazolo[4,3-c]quinolin-3-one]

- EP Result (GABAA receptors): Pos
- IC50 [1]: < 1000 nM
SMILES: CC1CN(c2cc3[nH]cc4c(=O)n(-c5ccccc5)nc-4c3cc2F)CC(C)O1 (centres unmarked) [28g, 7-(2,6-Dimethylmorpholin-4-yl)-8-fluoro-2-phenyl-2,5-dihydro-pyrazolo[4,3-c]quinolin-3-one]

- EP Result (GABAA receptors): Pos
- IC50 [1]: < 1000 nM
SMILES: O=c1c2c[nH]c3c(F)c(N4CCOCC4)c(F)cc3c-2nn1-c1ccccc1 [44c, 6,8-Difluoro-7-(morpholin-4-yl)-2-phenyl-2,5-dihydro-pyrazolo[4,3-c]quinolin-3-one]

- EP Result (GABAA receptors): Neg
- IC50 [1]: < 1000 nM
SMILES: O=c1c2c[nH]c3c(F)c(N4CCNCC4)c(F)cc3c-2nn1-c1ccccc1 [44a, 6,8-Difluoro-2-phenyl-7-piperazin-1-yl-2,5-dihydro-pyrazolo[4,3-c]quinolin-3-one]

- EP Result (GABAA receptors): Pos
- IC50 [1]: < 1000 nM
SMILES: CN1CCN(c2c(F)cc3c4nn(-c5ccccc5)c(=O)c-4c[nH]c3c2F)CC1 [44b, 6,8-Difluoro-7-(4-methyl-piperazin-1-yl)-2-phenyl-2,5-dihydro-pyrazolo [4,3-c]quinolin-3-one]

From patent US8598159B2, “Therapeutic pyrazoloquinoline derivatives” (Dart Neuroscience (Cayman) Ltd., priority 2007, dated 2013)
